Reference: ChEMBL document CHEMBL1138343 (J Med Chem, 2007)

What was measured:
[1] = target: T1, Glucocorticoid receptor (Homo sapiens, UniProt P04150); experiment: Agonist activity at glucocorticoid receptor in human A549 cells by MMTV transactivation assay; type: functional, cell-based; settings: for pEC50: a549
T1 sequence (P04150 whole entry): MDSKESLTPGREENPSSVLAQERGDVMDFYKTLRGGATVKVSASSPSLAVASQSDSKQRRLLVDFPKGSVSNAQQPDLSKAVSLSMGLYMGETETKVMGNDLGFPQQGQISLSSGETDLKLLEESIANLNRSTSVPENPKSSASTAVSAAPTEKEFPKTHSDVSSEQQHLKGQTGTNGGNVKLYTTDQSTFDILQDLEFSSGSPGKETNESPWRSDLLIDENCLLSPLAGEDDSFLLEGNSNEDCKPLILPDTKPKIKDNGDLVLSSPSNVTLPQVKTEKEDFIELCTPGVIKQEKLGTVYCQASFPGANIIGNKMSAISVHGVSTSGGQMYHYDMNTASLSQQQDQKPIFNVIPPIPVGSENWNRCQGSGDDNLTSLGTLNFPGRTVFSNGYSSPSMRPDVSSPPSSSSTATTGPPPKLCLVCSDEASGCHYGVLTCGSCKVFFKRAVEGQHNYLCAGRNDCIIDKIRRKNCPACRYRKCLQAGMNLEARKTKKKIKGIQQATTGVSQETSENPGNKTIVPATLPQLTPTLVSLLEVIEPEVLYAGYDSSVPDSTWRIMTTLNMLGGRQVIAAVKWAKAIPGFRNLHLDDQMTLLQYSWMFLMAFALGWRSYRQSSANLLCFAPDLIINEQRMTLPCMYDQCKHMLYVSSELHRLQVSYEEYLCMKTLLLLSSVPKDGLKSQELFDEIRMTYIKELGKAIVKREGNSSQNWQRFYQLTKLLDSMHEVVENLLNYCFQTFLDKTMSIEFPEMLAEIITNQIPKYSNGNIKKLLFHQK

[2] = target: T1, Glucocorticoid receptor
[3] = target: T1, Glucocorticoid receptor; remark: listed apart in the source
Description: Agonist activity at glucocorticoid receptor in human A549 cells by NF-kappaB transrepression assay

[4] = target: T1, Glucocorticoid receptor; remark: listed apart in the source

| SMILES | EC50 [1] | IC50 [2] | IC50 [3] | IC50 [4] | pEC50 [1] |
| --- | --- | --- | --- | --- | --- |
| CC1(CC(O)(Cc2ccnc3ccccc23)C(F)(F)F)CCCc2ccccc21 (stereo in doubt; 41D1) | 0.0129 µM | 0.0151 µM | 0.00708 µM |  |  |
| CCC1(CC(O)(Cc2[nH]c3ccccc3c2C#N)C(F)(F)F)CCCc2ccccc21 (stereo not given) | > 1 µM | 0.00759 µM | 0.00661 µM | 0.0575 µM |  |
| CCC1(CC(O)(Cc2cc3ccccc3[nH]2)C(F)(F)F)CCCc2ccccc21 (stereo in doubt; 20D1E1) | 0.0617 µM | 0.0141 µM | 0.0112 µM | 0.245 µM |  |
| CC1(CC(O)(Cc2cc3ccccc3[nH]2)C(F)(F)F)CCCc2ccccc21 (stereo not given) | 0.0417 µM | 0.0229 µM | 0.0427 µM | 0.447 µM |  |
| CCC1(CC(O)(Cc2cc3ccncc3[nH]2)C(F)(F)F)CCCc2ccccc21 (stereo in doubt; 23D1) |  | 0.0282 µM | 0.02 µM |  | < 6 |
| CCC1(CC(O)(Cc2cc3ccncc3[nH]2)C(F)(F)F)CCCc2ccccc21 (stereo in doubt; 23D1E1) | > 1 µM | 0.00891 µM | 0.00891 µM | 0.741 µM |  |
| Cc1noc(=O)c2ccc(NC(=O)C(O)(CC3(C4CCCC4)CCCc4ccccc43)C(F)(F)F)cc12 (stereo not given) | 0.0178 µM | 0.00813 µM | 0.00204 µM | 0.0537 µM |  |
| CCC1(CC(O)(Cc2cc3c(C)cc(C#N)cc3[nH]2)C(F)(F)F)CCCc2ccccc21 (stereo in doubt; 21D1E2) | 0.0513 µM | 0.0389 µM | 0.0038 µM |  |  |
| CCC1(CC(O)(Cc2cc3c(C)cc(C#N)cc3[nH]2)C(F)(F)F)CCCc2ccccc21 (stereo in doubt; 21D1) | 0.0589 µM | 0.0891 µM | 0.00724 µM |  |  |
| CC1(CC(O)(Cc2ccnc3ccccc23)C(F)(F)F)CCCc2ccccc21 (stereo in doubt; 41D2) | > 10 µM | 0.024 µM | > 10 µM |  |  |
| CC1(CC(O)(Cn2ccc(=O)c3ccccc32)C(F)(F)F)CCCc2ccccc21 (stereo in doubt; 17D1) |  | 0.0141 µM | 0.049 µM | 0.224 µM | < 6 |
| CC1(CC(O)(Cn2ccc(=O)c3ccccc32)C(F)(F)F)CCCc2ccccc21 (stereo in doubt; 17D2) | > 1 µM | 0.0347 µM | > 1 µM | 0.708 µM |  |
| OC(Cc1ccnc2ccccc12)(CC1(C2CCCC2)CCCc2ccccc21)C(F)(F)F (stereo not given) | > 10 µM | 0.148 µM | 0.741 µM |  |  |

Continued, values first:

| EC50 [1] | IC50 [2] | IC50 [3] | IC50 [4] | pEC50 [1] | SMILES |
| --- | --- | --- | --- | --- | --- |
| > 1 µM | 0.01 µM | 0.00158 µM |  |  | CCC1(CC(O)(Cc2ccnc3ccccc23)C(F)(F)F)CCCc2ccccc21 (stereo in doubt; 33D1E1) |
| > 10 µM | 0.0331 µM | 0.275 µM |  |  | CCC1(CC(O)(Cc2ccnc3ccccc23)C(F)(F)F)CCCc2ccccc21 (stereo in doubt; 33D2) |
| 0.162 µM | 0.0186 µM | 0.049 µM |  |  | CCC1(CC(O)(CNc2cccc3nc(C)ccc23)C(F)(F)F)CCCc2ccccc21 (stereo in doubt; 45D2) |
| 0.0513 µM | 0.0282 µM | 0.0302 µM |  |  | CCC1(CC(O)(Cc2cc(Cl)nc3ccccc23)C(F)(F)F)CCCc2ccccc21 (stereo not given) |
| 0.038 µM | 0.0151 µM | 0.0049 µM | 5.01 µM |  | CCC1(CC(O)(Cc2ccnc3ccccc23)C(F)(F)F)CCCc2ccccc21 (stereo in doubt; 33D1) |
| 0.00955 µM | 0.00501 µM | 0.000501 µM | 0.0776 µM |  | Cc1ccc2c(NCC(O)(CC3(C)CCCc4ccccc43)C(F)(F)F)cccc2n1 (stereo in doubt; 55D1E1) |
| 0.0646 µM | 0.0316 µM | 0.0575 µM |  |  | CCC1(CC(O)(Cc2cc3ccccc3[nH]2)C(F)(F)F)CCCc2ccccc21 (stereo in doubt; 20D1) |
| 0.0135 µM | 0.00631 µM | 0.00309 µM |  |  | CC1(CC(O)(CNc2cccc3ncccc23)C(F)(F)F)CCCc2ccccc21 (stereo not given) |
| > 1 µM | 0.0141 µM | 0.00813 µM |  |  | CCC1(CC(O)(Cn2ccc(=O)c3ccccc32)C(F)(F)F)CCCc2ccccc21 (stereo not given) |
| > 1 µM | 0.0112 µM | 0.0123 µM |  |  | CCC1(CC(O)(CNc2cccc3ncccc23)C(F)(F)F)CCCc2ccccc21 (stereo not given) |
| 0.288 µM | 0.0174 µM | 0.0457 µM |  |  | CCC1(CC(O)(CNc2cccc3nc(C)ccc23)C(F)(F)F)CCCc2ccccc21 (stereo in doubt; 45D2E1) |
| 0.00832 µM | 0.00871 µM | 0.00117 µM | 0.102 µM |  | CC1(CC(O)(CNc2cccc3cnccc23)C(F)(F)F)CCCc2ccccc21 (stereo in doubt; 54D1E2) |
| 0.257 µM | 0.0741 µM | 0.0151 µM |  |  | CC1(CC(O)(CNc2cccc3cnccc23)C(F)(F)F)CCCc2ccccc21 (stereo in doubt; 54D2E1) |
|  | 1.26 µM | > 1 µM |  |  | CCC1(CC(O)(Cc2cc3ccccc3[nH]2)C(F)(F)F)CCCc2ccccc21 (stereo in doubt; 20D1E2) |
| > 1 µM | 0.01 µM | 0.00219 µM |  |  | CCC1(CC(O)(CNc2cccc3cnccc23)C(F)(F)F)CCCc2ccccc21 (stereo in doubt; 49D1E2) |
| 0.011 µM | 0.0148 µM | 0.00195 µM |  |  | CCC1(CC(O)(CNc2cccc3nc(C)ccc23)C(F)(F)F)CCCc2ccccc21 (stereo in doubt; 45D1E1) |
| 0.0132 µM | 0.0148 µM | 0.0024 µM |  |  | CCC1(CC(O)(CNc2cccc3nc(C)ccc23)C(F)(F)F)CCCc2ccccc21 (stereo in doubt; 45D1) |
| 0.0324 µM | 0.0214 µM | 0.00126 µM |  |  | CCC1(CC(O)(CNc2cccc3cnccc23)C(F)(F)F)CCCc2ccccc21 (stereo in doubt; 49D1) |
| 0.0724 µM | 0.00912 µM | 0.00912 µM |  |  | Cc1ccc2c(NCC(O)(CC3(C)CCCc4ccccc43)C(F)(F)F)cccc2n1 (stereo in doubt; 55D2E1) |
